# ChEMBL document CHEMBL1201862, “PubChem BioAssay data set” (2004)
# The source made the active and inactive calls.
# Legend:
# [1] = target: T1, Ubiquitin-conjugating enzyme E2 N (Homo sapiens, UniProt P61088); type: functional;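 further: Dose-response confirmation in a TR-FRET assay detecting UBC13-driven polyubiquitin chain formation, inhibition measured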
# T1 sequence (P61088 whole entry): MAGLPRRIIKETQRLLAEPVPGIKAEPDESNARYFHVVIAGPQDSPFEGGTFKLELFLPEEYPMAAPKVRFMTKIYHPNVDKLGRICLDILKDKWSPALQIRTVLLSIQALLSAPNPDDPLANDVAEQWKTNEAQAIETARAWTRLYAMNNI
# Aminopeptidase N = target: T2, Aminopeptidase N (Plasmodium falciparum FcB1/Columbia, UniProt O96935); assay: malaria alanyl aminopeptidase activity blockers – biochemical, fluorogenic H-Leu-NHMec substrate, 1536-well (AID 1445); parameters: species or system Plasmodium falciparum 3D7, 3D7
# T2 sequence (O96935 whole entry): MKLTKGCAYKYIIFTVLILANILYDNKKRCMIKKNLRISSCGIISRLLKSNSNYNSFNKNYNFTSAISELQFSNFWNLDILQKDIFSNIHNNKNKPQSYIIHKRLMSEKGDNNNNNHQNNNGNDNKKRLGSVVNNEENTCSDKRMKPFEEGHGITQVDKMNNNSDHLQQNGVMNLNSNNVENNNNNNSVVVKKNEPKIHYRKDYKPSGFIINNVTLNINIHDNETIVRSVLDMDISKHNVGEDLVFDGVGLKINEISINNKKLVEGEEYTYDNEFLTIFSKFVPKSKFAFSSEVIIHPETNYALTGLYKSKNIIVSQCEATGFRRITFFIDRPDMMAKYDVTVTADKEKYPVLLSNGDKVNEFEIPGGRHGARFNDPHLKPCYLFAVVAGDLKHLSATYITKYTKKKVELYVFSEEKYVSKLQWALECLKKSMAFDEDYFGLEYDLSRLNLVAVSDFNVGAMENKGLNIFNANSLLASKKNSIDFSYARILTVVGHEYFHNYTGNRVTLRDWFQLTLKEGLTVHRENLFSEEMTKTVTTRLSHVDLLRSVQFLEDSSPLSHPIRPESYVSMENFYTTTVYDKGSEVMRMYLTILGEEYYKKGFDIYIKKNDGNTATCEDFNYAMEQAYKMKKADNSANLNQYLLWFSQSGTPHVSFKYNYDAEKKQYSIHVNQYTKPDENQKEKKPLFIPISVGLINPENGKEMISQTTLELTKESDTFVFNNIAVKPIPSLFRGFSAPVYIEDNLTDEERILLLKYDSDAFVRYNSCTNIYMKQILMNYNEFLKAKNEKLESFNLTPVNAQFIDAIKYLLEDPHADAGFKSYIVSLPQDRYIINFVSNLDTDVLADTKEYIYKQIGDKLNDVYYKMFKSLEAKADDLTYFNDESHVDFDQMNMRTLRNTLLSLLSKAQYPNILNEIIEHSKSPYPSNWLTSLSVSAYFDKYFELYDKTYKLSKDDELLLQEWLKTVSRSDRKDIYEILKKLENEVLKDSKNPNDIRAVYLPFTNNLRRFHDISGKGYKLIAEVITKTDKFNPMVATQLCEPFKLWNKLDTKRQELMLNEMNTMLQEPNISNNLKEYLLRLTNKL
# [2] = microbe, parasite or virus in culture; type: functional; conditions: Mycobacterium tuberculosis
# [3] = NIH-3T3 fibroblast cytotoxicity, dose response, cytotoxicity control, cell-based, fluorescence, Alamar Blue, secondary assay (AID 2327); type: functional;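 further: NIH-3T3 mouse fibroblasts cultured with fluconazole at 8 µg/mL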
# [4] = fluconazole-exposed Candida albicans growth modulators – fluorescence, retest, confirmation (AID 2467); type: functional, cell-based
# H9c2 = assay: cells; type: functional, cell-based; conditions: Rattus norvegicus, H9c2, Myocardium;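 further: confirmatory concentration-response retest of ultra-high-throughput screening hits for modulation of myocardial damage; cell death induced by hydrogen peroxide oxidative stress; compound pretreatment for 60 min then peroxide exposure for 2 h; potency is for protecting the cells against peroxide damage rather than for killing them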
# Nonstructural protein 1 = Nonstructural protein 1 (Influenza A virus, UniProt Q194T2); type: functional, Influenza A virus (A/California/07/2009(H1N1))
# Nonstructural protein 1, sequence (Q194T2 whole entry): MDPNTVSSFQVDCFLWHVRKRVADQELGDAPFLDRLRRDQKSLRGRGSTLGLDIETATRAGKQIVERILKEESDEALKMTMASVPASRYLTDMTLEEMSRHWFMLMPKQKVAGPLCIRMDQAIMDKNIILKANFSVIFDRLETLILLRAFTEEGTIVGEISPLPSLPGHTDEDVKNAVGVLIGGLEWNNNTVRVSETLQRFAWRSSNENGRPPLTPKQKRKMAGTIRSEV
# Fatty acid synthase [5] = target: T3, Fatty acid synthase (Homo sapiens, UniProt P49327); assay: inhibition of human FAS-TE enzyme activity – biochemical, endpoint fluorescence intensity, uHTS hits, dose response (AID 624327); type: functional;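 further: fluorescence from hydrolysis of an O-methyl fluorescein acyl ester substrate by the enzyme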
# T3 sequence (P49327 whole entry): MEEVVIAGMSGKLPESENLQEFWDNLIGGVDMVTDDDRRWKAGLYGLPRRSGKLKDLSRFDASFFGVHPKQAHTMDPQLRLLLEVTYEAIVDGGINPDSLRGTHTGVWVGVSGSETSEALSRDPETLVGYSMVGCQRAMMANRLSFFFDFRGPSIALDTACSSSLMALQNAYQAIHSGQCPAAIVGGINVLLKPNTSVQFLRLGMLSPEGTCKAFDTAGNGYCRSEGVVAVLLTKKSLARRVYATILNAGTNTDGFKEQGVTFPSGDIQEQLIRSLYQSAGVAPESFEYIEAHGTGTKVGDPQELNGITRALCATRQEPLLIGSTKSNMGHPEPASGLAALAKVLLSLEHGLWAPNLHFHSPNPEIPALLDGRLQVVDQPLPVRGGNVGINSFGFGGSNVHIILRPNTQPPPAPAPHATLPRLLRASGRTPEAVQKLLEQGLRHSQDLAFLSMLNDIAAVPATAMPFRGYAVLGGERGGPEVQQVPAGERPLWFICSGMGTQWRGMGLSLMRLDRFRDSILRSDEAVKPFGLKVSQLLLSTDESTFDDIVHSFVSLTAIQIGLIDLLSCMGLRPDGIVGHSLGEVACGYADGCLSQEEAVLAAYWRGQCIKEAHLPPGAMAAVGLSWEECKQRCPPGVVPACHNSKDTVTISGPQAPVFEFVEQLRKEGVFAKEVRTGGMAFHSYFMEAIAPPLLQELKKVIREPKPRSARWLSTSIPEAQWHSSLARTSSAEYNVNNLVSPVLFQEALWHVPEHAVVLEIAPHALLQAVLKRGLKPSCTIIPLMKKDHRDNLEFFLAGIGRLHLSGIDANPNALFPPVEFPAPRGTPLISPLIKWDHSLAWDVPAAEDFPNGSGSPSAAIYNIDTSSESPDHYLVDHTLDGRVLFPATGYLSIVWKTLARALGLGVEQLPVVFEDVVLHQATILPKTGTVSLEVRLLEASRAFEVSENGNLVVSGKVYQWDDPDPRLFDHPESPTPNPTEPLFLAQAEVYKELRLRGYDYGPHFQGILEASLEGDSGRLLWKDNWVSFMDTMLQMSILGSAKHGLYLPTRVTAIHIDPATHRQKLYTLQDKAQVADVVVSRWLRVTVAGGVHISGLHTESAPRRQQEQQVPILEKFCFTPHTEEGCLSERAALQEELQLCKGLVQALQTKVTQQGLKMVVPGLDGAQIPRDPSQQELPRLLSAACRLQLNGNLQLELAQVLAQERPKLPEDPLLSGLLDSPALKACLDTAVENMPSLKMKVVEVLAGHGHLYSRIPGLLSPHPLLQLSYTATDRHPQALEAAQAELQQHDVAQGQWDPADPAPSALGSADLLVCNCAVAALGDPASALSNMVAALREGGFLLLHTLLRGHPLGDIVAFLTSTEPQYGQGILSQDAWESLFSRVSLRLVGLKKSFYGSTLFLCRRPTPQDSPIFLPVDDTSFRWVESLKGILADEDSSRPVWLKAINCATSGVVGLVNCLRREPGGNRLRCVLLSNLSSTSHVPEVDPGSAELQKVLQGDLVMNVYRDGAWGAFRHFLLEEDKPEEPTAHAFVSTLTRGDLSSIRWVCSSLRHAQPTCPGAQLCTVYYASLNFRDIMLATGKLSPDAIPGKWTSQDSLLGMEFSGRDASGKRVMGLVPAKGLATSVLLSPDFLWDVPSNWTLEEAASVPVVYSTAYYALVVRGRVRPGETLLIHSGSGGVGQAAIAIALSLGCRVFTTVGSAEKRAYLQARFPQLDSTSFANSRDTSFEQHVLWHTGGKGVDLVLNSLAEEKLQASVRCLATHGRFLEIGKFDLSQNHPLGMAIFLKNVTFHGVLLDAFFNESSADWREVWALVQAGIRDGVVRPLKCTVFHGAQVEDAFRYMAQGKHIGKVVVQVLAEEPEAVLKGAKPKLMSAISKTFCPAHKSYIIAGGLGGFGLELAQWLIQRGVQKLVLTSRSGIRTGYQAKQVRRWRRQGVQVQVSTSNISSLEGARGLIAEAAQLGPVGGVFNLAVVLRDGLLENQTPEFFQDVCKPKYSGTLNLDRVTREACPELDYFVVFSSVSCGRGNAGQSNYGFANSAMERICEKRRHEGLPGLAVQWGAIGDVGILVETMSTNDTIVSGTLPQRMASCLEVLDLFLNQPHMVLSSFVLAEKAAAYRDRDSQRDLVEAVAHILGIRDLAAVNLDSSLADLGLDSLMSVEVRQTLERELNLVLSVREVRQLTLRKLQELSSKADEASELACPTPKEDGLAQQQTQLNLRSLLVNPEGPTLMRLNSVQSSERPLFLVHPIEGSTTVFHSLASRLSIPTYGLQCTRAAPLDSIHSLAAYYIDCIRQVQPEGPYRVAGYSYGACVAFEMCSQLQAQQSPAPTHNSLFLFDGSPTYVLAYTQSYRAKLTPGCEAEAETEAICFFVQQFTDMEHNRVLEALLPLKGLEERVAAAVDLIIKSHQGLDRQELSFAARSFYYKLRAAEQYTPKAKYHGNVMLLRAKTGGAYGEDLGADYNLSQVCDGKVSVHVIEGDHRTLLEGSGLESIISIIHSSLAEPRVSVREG
# Fatty acid synthase [6] = target: T3, Fatty acid synthase; assay: inhibition of human FAS-TE enzyme activity – biochemical, kinetic fluorescence intensity, dose response (AID 624326); type: functional;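 further: rate of fluorescence rise from hydrolysis of a fluorogenic O-methyl fluorescein ester substrate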
# [7] = tested on: Streptococcus sp. 'group A'; assay: Streptococcus pyogenes SK(-)GAS viability under kanamycin – luminescence, BacTiterGlo, confirmation, counter-screen for streptokinase expression inhibitor project, dose response (AID 1900); type: functional, organism-based
# [8] = Trypanosoma cruzi growth suppression in host cells – NIH3T3 host cells, beta-gal luminescence, confirmation (AID 2044); type: functional, cell-based;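 further: intracellular parasites grown in NIH/3T3 mouse fibroblasts as host cells; luminescent beta-galactosidase reporter signal from transgenic T. cruzi replicating inside host cells; inhibitors lower the luminescence signal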
# [9] = NIH3T3 cell viability loss – ATP luminescence, mouse fibroblasts, counter-screen, dose response (AID 2010); type: functional, cell-based;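 further: cells exposed to compound for about 90 hours before reading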
# Streptococcus = assay: GAS UMAA2166 growth inhibition – luminescence, BacTiterGlo, counter-screen for streptokinase expression inhibitor project, dose response (AID 1915); type: functional, organism-based;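 further: potency for reduction of bacterial viability or growth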
# INS1 = assay: INS-1E survival protection against cytokine death – cell-based, luminescence, retest, dose response (AID 449756); type: functional; conditions: Rattus norvegicus;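 further: cell death triggered by IL-1 beta plus TNF-alpha plus IFN-gamma mixture; protective hits raise ATP signal compared with cytokine alone wells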
# [10] = reduction of Shn3 3'UTR-driven luciferase in osteoblasts – cell-based, Clone20 osteoblasts, firefly luciferase, cherry-picked, dose response (AID 624132); type: functional;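 further: firefly luciferase luminescence from reporter carrying the Shn3 3'UTR in osteoblasts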
# [11] = loss of viability in HepG2 cells – cell-based, CellTiter-Glo, cherry-picked, cytotoxicity control for Shn3 inhibitor project, dose response (AID 624134); type: functional
# [12] = non-specific 3'UTR reporter inhibition in Clone20-Shn3RL – cell-based, Renilla luciferase, cherry-picked, counter-screen for Shn3 inhibitor project, dose response (AID 624133); type: functional
# [13] = viability of PTEN-deleted HCT116 cells – cell-based, HCT116 PTEN knockout, dose response (AID 1047); type: functional;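 further: HCT116 colon tumor cells with PTEN knocked out; cells exposed to compound for 60 hours before readout; potency for loss of cell viability measured by luminescence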
# [14] = viability of HCT116 lacking mutant beta-catenin – cell-based, human colon tumor, dose response (AID 1045); type: functional;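 further: HCT116 colon tumor cells with beta catenin knocked out; cells exposed to compound for 60 hours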
# [15] = target: T4, DNA repair protein RAD52 homolog (Homo sapiens, UniProt P43351); type: functional, biochemical
# T4 sequence (P43351 whole entry): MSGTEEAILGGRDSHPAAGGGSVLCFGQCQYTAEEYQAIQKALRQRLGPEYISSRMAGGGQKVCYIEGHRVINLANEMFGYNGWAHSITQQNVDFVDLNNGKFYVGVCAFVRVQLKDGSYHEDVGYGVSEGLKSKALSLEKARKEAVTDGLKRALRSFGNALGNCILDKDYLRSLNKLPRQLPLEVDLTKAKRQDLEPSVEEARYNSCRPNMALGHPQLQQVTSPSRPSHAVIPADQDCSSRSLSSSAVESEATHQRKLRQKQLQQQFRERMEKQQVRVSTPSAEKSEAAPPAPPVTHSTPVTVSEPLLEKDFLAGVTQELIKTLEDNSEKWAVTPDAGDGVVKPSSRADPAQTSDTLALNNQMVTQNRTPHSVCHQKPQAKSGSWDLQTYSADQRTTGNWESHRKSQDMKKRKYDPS
# [16] = blockers of HIV-1 envelope-mediated cell-cell fusion – cherry-pick, dose response (AID 652057); type: functional, cell-based
# [17] = blockers of HIV-1 ZM109 envelope-driven cell-cell fusion – HeLa effector, CEM target cells, luciferase, cherry-pick, dose response (AID 652058); type: functional, cell-based;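 further: luciferase signal from HIV-1 Env mediated cell-cell fusion of effector and target cells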
# Paired box protein Pax-8 = Paired box protein Pax-8 (Homo sapiens, UniProt Q06710); assay: PAX8 transcriptional activity inhibition in RMG-I – RMG-I cells, luciferase, cherry-pick, dose response (AID 687027); type: functional, cell-based;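 further: luciferase reporter driven by Pax8 target thyroperoxidase promoter measured by SteadyGlo luminescence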
# Paired box protein Pax-8, sequence (Q06710 whole entry, the tested form may be a part): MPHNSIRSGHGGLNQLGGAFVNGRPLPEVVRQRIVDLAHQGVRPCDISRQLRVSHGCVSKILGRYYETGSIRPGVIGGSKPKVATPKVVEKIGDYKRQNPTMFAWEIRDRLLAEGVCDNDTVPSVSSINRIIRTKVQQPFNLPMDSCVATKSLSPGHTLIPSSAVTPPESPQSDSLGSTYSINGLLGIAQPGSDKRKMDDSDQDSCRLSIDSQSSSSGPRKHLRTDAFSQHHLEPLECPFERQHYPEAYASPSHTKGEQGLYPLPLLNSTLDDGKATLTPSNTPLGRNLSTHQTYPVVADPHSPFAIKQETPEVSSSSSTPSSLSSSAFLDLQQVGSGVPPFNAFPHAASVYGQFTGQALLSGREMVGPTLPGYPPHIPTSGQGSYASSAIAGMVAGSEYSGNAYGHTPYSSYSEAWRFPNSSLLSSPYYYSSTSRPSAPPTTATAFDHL
# [18] = HIV-1 AD8 envelope cell-cell fusion blockers – cherry-pick, dose response (AID 652062); type: functional, cell-based;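 further: luciferase signal from cell-cell fusion driven by HIV-1 clade B AD8 Env; potency is for inhibitors of fusion seen as a drop in luminescence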
structure (smiles),measurement,setting,value
C#CCOCCOCCOCCNc1nc(N2CCOCC2)nc(N2CCN(C(=O)CCCCCCCCCCNC(=O)[C@@H]([C@H](C)CC)n3cc(CCCCCN)nn3)CC2)n1,IC50,[1],> 20 µM (inactive)
Cc1nnc(NC(=O)c2ccc3ccccc3n2)s1,IC50,Aminopeptidase N,36.8 µM (active)
CC(=O)Nc1ccc(S(=O)(=O)Nc2nc3ccccc3nc2Nc2ccccc2)cc1,IC50,Aminopeptidase N,94.9 µM (active)
Cc1c(Cc2ccccc2)c(=O)oc2c(CN(C)C)c(O)c(Cl)cc12,IC50,Aminopeptidase N,33 µM (active)
C[C@@H]1CCCCCCCCC(=O)OCCN[C@H](C)CCCCCCCCC(=O)OCCN[C@H](C)CCCCCCCCC(=O)OCCN1,CC50,[2],26.5 µM (active)
same,IC50,[1],> 20 µM (inactive)
CC(C)c1ccc(OCC(=O)Nc2cccc(C(=O)Nc3ccccc3C(=O)O)c2)cc1,EC50,[3],16.9 µM (inconclusive)
same,EC50,[4],1.9 µM (active)
CCOc1ccc(C(C(=O)NCC2CCCO2)N(C(=O)c2snc(C(N)=O)c2N)c2ccccc2F)cc1 (configuration not stated),IC50,[1],> 20 µM (inactive)
same,IC50,H9c2,> 79 µM (inactive)
CC(=O)Oc1ccc2c(C)c(CC(C)O)c(=O)oc2c1 (configuration not stated),IC50,Aminopeptidase N,62.4 µM (active)
CCSC1=NC(=O)/C(=C2/C=Cc3ccccc3N2CC)S1,IC50,Nonstructural protein 1,9.25 µM (active)
COc1ccc(OC)c(-n2c(CN3CCC(C(N)=O)CC3)nc3ccccc3c2=O)c1,EC50,[3],> 150 µM (inactive)
same,EC50,[4],3.29 µM (active)
Cc1c(C(=O)OCCOc2ccc(Br)cc2)sc(=S)n1C,IC50,Fatty acid synthase [5],7.07 µM (active)
same,IC50,Fatty acid synthase [6],5.67 µM (active)
O=C1Nc2ccccc2S/C1=C/NCc1ccccc1Cl,IC50,Aminopeptidase N,5.63 µM (active)
O=C(COc1cc(F)ccc1[N+](=O)[O-])Nc1ccc(N2CCCCC2)cc1,IC50,Nonstructural protein 1,21.3 µM (active)
O=C(C[n+]1ccccc1)NN=Cc1cc(Br)ccc1O,IC50,Nonstructural protein 1,2.96 µM (active)
C[C@@]12C(=O)Nc3cc(F)ccc3C(=O)N1[C@H]1c3ccccc3OC[C@@H]1[C@@H]2c1ccccc1,IC50,Fatty acid synthase [5],18.1 µM (active)
same,IC50,Fatty acid synthase [6],20.3 µM (inactive)
CCCOC(=O)/C(=C\c1ccc([N+](=O)[O-])o1)NC(=O)c1ccccc1,EC50,[3],> 160 µM (inactive)
same,EC50,[4],0.174 µM (active)
same,CC50,[2],35.1 µM (active)
COc1ccccc1C(NC(C)=O)c1cc(Cl)c2cccnc2c1O (configuration not stated),EC50,[7],2.9 µM (active)
same,EC50,[8],0.647 µM (active)
same,EC50,[9],2.85 µM (active)
same,EC50,Streptococcus,2.95 µM (active)
same,AC50,INS1,1.38 µM (active)
same,AC50,[10],2.56 µM (active)
same,AC50,[11],2.3 µM (active)
same,AC50,[12],1.27 µM (active)
O=C(CN1C(=O)C2C3CC(C(Br)C3Br)C2C1=O)Nc1ccc(C(=O)O)cc1 (configuration not stated),IC50,Aminopeptidase N,62.5 µM (active)
CN1CCN(Cc2nc3ccccc3c(=O)n2Cc2nc(-c3ccc([N+](=O)[O-])cc3)cs2)CC1,EC50,[13],4.88 µM (active)
same,EC50,[14],7.87 µM (active)
same,IC50,[1],> 20 µM (inactive)
COc1cccc(-n2c(CN3CCN(c4ccccc4)CC3)nc3ccc([N+](=O)[O-])cc3c2=O)c1,IC50,Fatty acid synthase [5],4.81 µM (active)
same,IC50,Fatty acid synthase [6],7.99 µM (active)
CCCS(=O)(=O)Nc1ccc(Nc2c3ccccc3nc3ccccc23)c(OC)c1,AC50,[10],3.39 µM (active)
same,AC50,[11],20.1 µM (active)
same,AC50,[12],1.03 µM (active)
same,AC50,[15],3.15 µM (active)
CCN(CC)CCNC(=O)c1nn(-c2ccc(Cl)cc2)c2c1CCc1cc(OC)ccc1-2,AC50,[15],16.8 µM (active)
O=C(Nc1cccc(C(=O)O)c1)/C(=C/c1cccc([N+](=O)[O-])c1)NC(=O)c1cccc(Br)c1,IC50,Fatty acid synthase [5],19.4 µM (active)
same,IC50,Fatty acid synthase [6],13.2 µM (active)
C/N=C(\C[N+](=O)[O-])NCCSCc1ccc(CN(C)C)o1,AC50,[15],12.5 µM (active)
CC1(C)CC(=O)C=C(c2ccc(-c3cnn(Cc4ccccc4)c3)cc2)C1=O,IC50,Fatty acid synthase [5],8.34 µM (active)
same,IC50,Fatty acid synthase [6],8.05 µM (active)
CC(C)CC#Cc1ccc2c(c1)O[C@H](CN(C)S(=O)(=O)c1ccc(F)cc1)[C@H](C)CN([C@@H](C)CO)S2(=O)=O,AC50,[16],26.6 µM (active)
same,AC50,[17],20.8 µM (active)
same,AC50,Paired box protein Pax-8,9.6 µM (active)
same,AC50,[18],23.7 µM (active)
CC(C)NC(=O)Nc1ccc2c(c1)CC(=O)N([C@H](C)CO)C[C@H](C)[C@H](CN(C)S(=O)(=O)c1ccccc1)O2,AC50,[16],8.61 µM (active)
same,AC50,[17],10.7 µM (active)
same,AC50,[18],35.9 µM (active)
O=C(N/N=C/c1ccc(Cl)cc1Cl)Nc1ccccc1,EC50,[3],> 160 µM (inactive)
same,EC50,[4],> 38 µM (not active)
